# Measurements as given in publication PMC7835894 (Molecules, 2021).
# Key:
# Type in all cases: cell-based, human
# PC3 = experiment: MTT antiproliferation assay; details: for IC50: Homo sapiens, PC-3, PC3, MTT, 24 h, mean ± SEM; for SI (selectivity index): PC3, SI = IC50 (WI-38)/IC50 (cancer cell line)
# Experimental: (§1) The antiproliferation and cytotoxicity were assessed using 3-(4,5-dimethylthiazol-2-yl)-2,5-diphenyltetrazolium bromide (MTT, Serva) colorimetric assay. To investigate the antiproliferation, all cell lines were seeded at a density of 20,000 cells per well in 96-well plates and allowed to adhere overnight. […] These concentrations were prepared by diluting the stock solutions with serum-free culture media. The negative control cells were those treated with 0.1% DMSO solvent alone. The treated cells were handled in reduced light and maintained under standard culture growth conditions for 24 h. After the incubation period, MTT powder was prepared as a stock solution (5 mg/mL) and 20 μL of the MTT working reagent (final concentration 0.5 mg/mL) was added to each well. This was followed by incubation with MTT reagent for 4 h in a humidified atmosphere (37 °C, 5% CO2) with subsequent addition of 150 μL of DMSO solubilizing solvent and incubation for 20 min. The absorbance of solubilized violet formazan crystals was measured at 540 nm with Biotek 800 TS microplate reader. IC50 was calculated as the concentration of retinoid that produced 50% cell growth inhibition. For cytotoxicity assessment, WI-38 normal human fibroblast cells were used for the calculation of SI which is the ratio of IC50 retinoid (WI-38)/IC50 retinoid (cancer cell line).
# Caco-2 = experiment: MTT antiproliferation assay; details: for IC50: Homo sapiens, Caco-2, MTT, 24 h, single agent, mean ± SEM; for SI (selectivity index): Caco-2, SI = IC50 (WI-38)/IC50 (cancer cell line)
# Experimental: as §1
# MCF-7 = experiment: MTT antiproliferation assay; details: for IC50: Homo sapiens, MCF7, MCF-7, MTT, 24 h, mean ± SEM; for SI (selectivity index): MCF-7, SI = IC50 (WI-38)/IC50 (cancer cell line)
# Experimental: as §1
# HCT-116 = experiment: MTT antiproliferation assay; details: for IC50: Homo sapiens, HCT-116, MTT, 24 h, mean ± SEM; for SI (selectivity index): HCT-116, SI = IC50 (WI-38)/IC50 (cancer cell line)
# Experimental: as §1
# A549 = experiment: MTT antiproliferation assay; details: for IC50: Homo sapiens, A549, MTT, 24 h, mean ± SEM; for SI (selectivity index): A549, SI = IC50 (WI-38)/IC50 (cancer cell line)
# Experimental: as §1
# MDA-MB 231 = experiment: MTT antiproliferation assay; details: for IC50: Homo sapiens, MDA-MB 231, MTT, 24 h, mean ± SEM; for SI (selectivity index): MDA-MB 231, SI = IC50 (WI-38)/IC50 (cancer cell line)
# Experimental: as §1
# DU-145 = experiment: MTT antiproliferation assay; details: for IC50: Homo sapiens, DU-145, MTT, 24 h, mean ± SEM; for SI (selectivity index): DU-145, SI = IC50 (WI-38)/IC50 (cancer cell line)
# Experimental: as §1
# Caco-2 cells = experiment: Isobologram analysis of retinoid + 5-FU combinations (MTT); details: Caco-2, combination with 5-FU; for CI (combination index): CI < 1 is synergy
# Text: This mathematical model allows the determination of CI (combination index) values based on the Equation (1):CI = d1/D1 + d2/D2 (1) where d1 and d2 are the doses of drug 1 and drug 2 that, when given in combination, produce a specific response. D1 and D2 are the doses of drug 1 and drug 2, that, when given individually, produce the same response. Also, CI < 1 is synergy, CI = 1 is additivity and CI > 1 is antagonism
# DRI < 1 indicates unfavorable dose reduction and ineffective combination.
# Cytochrome-C = experiment: Immunocytochemistry of cytosolic Cyt-C in Caco-2 cells; details: Caco-2, IC50, 24 h, compared to 0.1% DMSO control
# Experimental: Caco-2 cells were seeded onto coverslips at a density of 1 × 10^6 cells using 0.1 mg/mL Poly-L-Lysine (Sigma-Aldrich, St. Louis, MO, USA) for immunocytochemistry (ICC) analysis. After treatment with IC50 of retinoids, cells were fixed in formalin neutral buffer (FNB) solution. The fixed cells were permeabilized with 0.1% Triton-x 100 and then blocked in 1% bovine serum albumin (BSA, prepared in PBS containing 0.1% Tween 20) for 30 min. Then, cells were incubated with Alexa Fluor® 488-conjugated anti-cytochrome C antibody overnight. After incubation, nuclei of cells were stained with Hoechst 33,258 (Sigma-Aldrich, St. Louis, MO, USA, 1:500). The coverslips were mounted in anti-fading medium (0.1% p-phenylenediamine, dissolved in 90% glycerin/PBS) and cytochrome C protein expression was detected using Carl Zeiss LSM 710 confocal microscope.
# RAR-β = experiment: Gene expression analysis (qPCR) in Caco-2 cells; details: Caco-2, IC50, 24 h, relative to 0.1% DMSO control, normalized to GAPDH
# Experimental: (§2) Sensitive cancer cell line (Caco-2) was used for gene expression analysis of different genes controlling differentiation, apoptosis, tumor resistance, aggressiveness, and metastasis. […] After incubation, cells were harvested, and the total RNA was purified using Favor-Prep^TM Blood/Cultured cell total RNA purification mini kit (Favorgen Biotech Corp., Ping-Tung, Taiwan). RNA was reverse transcribed into the first-strand cDNA using Revert Aid First Strand cDNA Synthesis Kit (Thermo Scientific, Waltham, MA, USA). HERA^PLUS SYBR® Green qPCR Kit (Willowfort, Nottingham, UK) was utilized in quantitative polymerase chain reactions (qPCR). Gene expression was analyzed and quantified using the 2ˆ^−ΔΔCT method.
# cytochrome-C (Cyt-C) = experiment: Gene expression analysis (qPCR) in Caco-2 cells; details: Caco-2, IC50, 24 h, relative to 0.1% DMSO control
# Experimental: as §2
# Caspase-8 (Cas-8) = experiment: Gene expression analysis (qPCR) in Caco-2 cells; details: Caco-2, IC50, 24 h, relative to 0.1% DMSO control
# Experimental: as §2
# Caspase-3 (Cas-3) = experiment: Gene expression analysis (qPCR) in Caco-2 cells; details: Caco-2, IC50, 24 h, relative to 0.1% DMSO control
# Experimental: as §2
# E-cadherin = experiment: Gene expression analysis (qPCR) in Caco-2 cells; details: Caco-2, IC50, 24 h, relative to 0.1% DMSO control
# Experimental: as §2
# WRN = experiment: Gene expression analysis (qPCR) in Caco-2 cells; details: Caco-2, IC50, 24 h, relative to 0.1% DMSO control
# Experimental: as §2
# Bax = experiment: Gene expression analysis (qPCR) in Caco-2 cells; details: Caco-2, IC50, 24 h, relative to 0.1% DMSO control
# Experimental: as §2
# RAR-α = experiment: Gene expression analysis (qPCR) in Caco-2 cells; details: Caco-2, IC50, 24 h, relative to 0.1% DMSO control, normalized to GAPDH
# Experimental: as §2
# RAI2 = experiment: Gene expression analysis (qPCR) in Caco-2 cells; details: Caco-2, IC50, 24 h, relative to 0.1% DMSO control
# Experimental: as §2
# p53 = experiment: Gene expression analysis (qPCR) in Caco-2 cells; details: Caco-2, IC50, 24 h, relative to 0.1% DMSO control
# Experimental: as §2
# RAR-γ = experiment: Gene expression analysis (qPCR) in Caco-2 cells; details: Caco-2, IC50, 24 h, relative to 0.1% DMSO control, normalized to GAPDH
# Experimental: as §2
# HT-29 = experiment: MTT antiproliferation assay; details: for SI (selectivity index): HT-29, SI = IC50 (WI-38)/IC50 (cancer cell line); for IC50: Homo sapiens, HT-29, MTT, 24 h, mean ± SEM
# Experimental: as §1
Compound,IC50 (PC3),IC50 (Caco-2),IC50 (MCF-7),IC50 (HCT-116),IC50 (A549),IC50 (MDA-MB 231),IC50 (DU-145),DRI (dose reduction index) (Caco-2 cells),CI (combination index) (Caco-2 cells),cytosolic Cyt-C protein released (anti-Cyt-C fluorescence intensity) (Cytochrome-C),"RAR-β gene expression, fold increase (RAR-β)","Cyt-C gene expression, fold change (cytochrome-C (Cyt-C))","Cas-8 gene expression, fold change (Caspase-8 (Cas-8))","Cas-3 gene expression, fold change (Caspase-3 (Cas-3))","E-cadherin gene expression, fold change (E-cadherin)","WRN gene expression, fold change (WRN)","Bax gene expression, fold change (Bax)","RAR-α gene expression, fold increase (RAR-α)","RAI2 gene expression, fold change (RAI2)","p53 gene expression, fold change (p53)",further results
"CC1=C(/C=C/C(C)=C/C=C/C(C)=C/C(=O)O)C(C)(C)CCC1 [ATRA, All-trans retinoic acid, reference compound]",> 100 µM,58 ± 1 µM,99 ± 0.26 µM,> 100 µM,84.7 ± 3.2 µM,> 100 µM,> 100 µM,,,,,,,,,,,,,,
"CC1(C)CCC(C)(C)c2cc(C#Cc3cccc(C(=O)O)c3)ccc21 [EC19, 3-(5,5,8,8-tetramethyl-5,6,7,8-tetrahydronaphthalen-2-ylethynyl) benzoic acid]",> 100 µM,10.8 ± 0.1 µM,9.4 ± 0.13 µM,> 100 µM,> 100 µM,> 100 µM,86.9 ± 2 µM,4.5 ± 0.6,0.46 ± 0.06,significant increase,131 fold,3.6 fold,7.1 fold,8.6 fold,54 fold,~ 40 fold,1.9 fold,2.6 fold,4.4 fold,1.2 fold,"RAR-γ gene expression, fold increase (RAR-γ): without affecting; SI (selectivity index) (PC3): <1; SI (selectivity index) (Caco-2): 4.5 ± 0.01; SI (selectivity index) (MCF-7): 5.18 ± 0.1; SI (selectivity index) (HCT-116): <1; SI (selectivity index) (A549): <1; SI (selectivity index) (MDA-MB 231): <1; SI (selectivity index) (HT-29): <1; IC50 (HT-29): > 100 µM; SI (selectivity index) (DU-145): 0.56 ± 0.001"
"CC1(C)CCC(C)(C)c2cc(C#Cc3ccc(C(=O)O)cc3)ccc21 [EC23, 4-(5,5,8,8-tetramethyl-5,6,7,8-tetrahydronaphthalen-2-ylethynyl) benzoic acid]",> 100 µM,14.7 ± 0.73 µM,5.56 ± 0.01 µM,44.5 ± 1.1 µM,> 100 µM,> 100 µM,> 100 µM,7.5 ± 0.8,0.27 ± 0.03,second rank,no effect,2.8 fold,did not induce significant expression,did not induce significant expression,16.3 fold,~ 40 fold,not able to induce any significant change,no effect,1.6 fold,did not induce p53 upregulation,"RAR-γ gene expression, fold increase (RAR-γ): 2.3 fold; SI (selectivity index) (PC3): <1; SI (selectivity index) (Caco-2): 0.54 ±0.01; SI (selectivity index) (MCF-7): 1.44 ± 0.004; SI (selectivity index) (HCT-116): 0.18 ± 0.003; SI (selectivity index) (A549): <1; SI (selectivity index) (MDA-MB 231): <1; SI (selectivity index) (HT-29): <1; IC50 (HT-29): > 100 µM; SI (selectivity index) (DU-145): <1"
